Data reported in patent US20090317373A1, “Inhibition of the Anti-FVIII Immune Response” (Institut National De La Sante Et De La Recherche Medicale, priority 2005, published 2009).

What was measured:
binding of FVIII to VWF = binding of FVIII to VWF (Homo sapiens, UniProt P00451); assay: ELISA for binding of FVIII to VWF; conditions: FVIII preincubated with mannan (0.01 to 4 mg/ml); FIG. 5b
Protocol: ELISA plates (Nunc, Roskilde, Denmark) were coated with VWF (VWF, Willefectin, LFB, Les Ulis, France) at 2 μg/ml per well in PBS (pH 7.4) at 37° C. for 1 hour. The plates were saturated with PBS containing 1% skimmed milk and 0.1% Tween 20 for 1 hour at 37° C. FVIII (0.3 μg/ml) was preincubated by itself or with mannan (0.01 to 4 mg/ml) or with BO2C11 (human monoclonal anti-FVIII IgG) (0.05 to 40 μg/ml) in a blocking buffer for 1 hour at 37° C. and then added to the wells coated with VWF and incubated for 1 hour at 37° C. A mouse monoclonal anti-FVIII IgG (mAb6) (3 μg/ml) was incubated at 37° C. for 1 hour. […] No binding of FVIII was observed on the wells which had not been coated.

[1] = tested on: human DCs derived from monocytes; assay: In vitro internalization of fluorescent ligands by human DCs derived from monocytes (flow cytometry); format: cell-based
Protocol: DCs were prepared from monocytes as described previously (29) with a change in the culture media. Briefly, mononucleated cells were isolated from heparinized leukoplatelet layers (“buffy coats”) from healthy adult donors by adhesion on plastic cell culture dishes in RPMI 1640 medium supplemented with 10% human AB serum, glutamine and antibiotics for 60 minutes. Non-adhering cells were removed by 3 gentle washings with the medium. The adhering monocytes were cultured in X-VIVO 15 medium (Cambrex Bio Sciences, Paris, France) supplemented with 1% human AB serum and antibiotics and in the presence of 500 IU/ml of recombinant human interleukin-4 (rhIL-4), R&D Systems (Lille, France) and 1,000 IU/ml of recombinant human granulocyte macrophage colony-stimulating factor (rhGM-CSF), Immunotools (Friesoythe, Germany). Half of the medium, comprising all the supplements, was replaced every two days. After culture for 5 days, the non-adhering cells and those with little adhesion, corresponding to the fraction enriched in DC, were harvested, washed and used for subsequent experiments.
Whole recombinant human FVIII (1,000 IU, Kogenate, Bayer) or B domain-deleted recombinant human FVIII (FVIII-BDD) (1,000 IU, Refacto, Wyeth) were solubilized in water and dialyzed against bicarbonate buffer (pH 9.2) containing CaCl2, 5 mM at 4° C., followed by coupling to fluorescein 5-isothiocyanate (isomer I, Sigma-Aldrich, Saint Quentin Fallavier, France) for 7-8 hours at 4° C. The labelled FVIII was then dialyzed against RPMI 1640 medium to remove non-coupled FITC. The FVIII-FITC was quantified by the Bradford method using bovine serum albumin as the standard.
The DCs obtained in Example 1 (0.4×10^5 cells/well of a 96-well plate with 100 μl/well) were incubated with various doses (0.029, 0.057, 0.143 and 0.358 μM) of fluorescent conjugated ligands (FVIII-FITC, BDD-FVIII-FITC) obtained in Example 2 in X-VIVO medium for 0, 15, 60 and 120 min at 4° C. or at 37° C. After the incubation period, the cells were washed with cold PBS and analyzed by flow cytometry. To investigate the involvement of receptors in the internalization, the cells were preincubated for 30 min at 37° C. with […] and 1 mg/ml of mannan (Sigma-Aldrich, Saint Quentin Fallavier, France) before the addition of ligands conjugated to fluorescein. In addition to FVIII-FITC and FVIII-BDD-FITC, human α2-macroglobulin-MA (α2M) conjugated to FITC from Biomac (Leipzig, Germany), dextran-FITC (molecular weight 40,000) from Molecular Probes (Leiden, The Netherlands) and Lucifer yellow (LY-CH) from Sigma-Aldrich were used. The investigation of the internalization of FVIII was also carried out in the presence of 20 μg/ml of anti-mannose receptor monoclonal antibody (PAM-1, isotype IgG1) or anti-DC-SIGN monoclonal antibody ((AZN-D1, isotype IgG1) or mouse IgGλ,k conjugated to PE-Cy (BD Pharmingen, France). To investigate whether DC-SIGN is involved in the endocytosis of FVIII, the B lymphocyte line HD-420 transformed by wild-type EBV and transfected with DC-SIGN or not transfected was incubated with various concentrations of FVIII-FITC (0, 0.036, 0.072 and 0.143 μM) for 2 hours in RPMI 1640 medium supplemented with 10% FCS (foetal calf serum) and antibiotics. The analysis was carried out as for the DCs.

[2] = biological target: T1, CTLD(4-7)-Fc (construct of the mannose receptor) (Mus musculus, UniProt Q61830); assay: ELISA binding of mannose receptor construct CTLD(4-7)-Fc to coated ligands; conditions: ELISA plates coated with ligand; FIG. 3c
T1 construct: gift of Dr Luisa Martinez-Pomares, University of Nottingham
Protocol: Constructs of the mannose receptor, CTLD(4-7)-FC and CR-FNII-CTLD(1-3)-CR-Fc, were kindly donated by Dr Luisa Martinez-Pomares, School of Molecular Medical Sciences, Queen's Medical Centre, University of Nottingham, UK. The binding of the constructs to whole recombinant human FVIII and to B domain-deleted recombinant human FVIII was tested either directly by measuring the binding to ELISA plates coated with ligands (mannan was used as a positive control) or indirectly by inhibition tests. The ELISA plates (Nunc; MAXISORP) were coated overnight with dilution series of the FVIII forms (starting at 50 μg/ml) in 154 mM NaCl. TTBS buffer (Tris-HCl 10 mM, pH 7.5, Ca^2+ 10 mM, NaCl 154 mM and 0.05% Tween-20) was used for all the washings. The non-reactive sites were blocked by TBS buffer (TTBS without Tween-20) containing 3% BSA. The plates were then incubated with 2 or 10 μg/ml of the constructs for 2 h at room temperature in TTBS buffer containing 3% BSA. The binding of the MR constructs was detected using a mouse antibody specific for the Fc part of human IgG conjugated to HRP (clone JDC-10, Southern Biotechnology Associates, Inc. AL, USA). […] The absorbance was measured at 492 nm. For the inhibition tests, the plates were coated with each form of FVIII (5.56 μg/ml). […] The absorbance was measured as described above. […]

[3] = in the presence of mannan, FIG. 2d

T1 sequence (Q61830 with tags, fused parts or gaps limits assumed): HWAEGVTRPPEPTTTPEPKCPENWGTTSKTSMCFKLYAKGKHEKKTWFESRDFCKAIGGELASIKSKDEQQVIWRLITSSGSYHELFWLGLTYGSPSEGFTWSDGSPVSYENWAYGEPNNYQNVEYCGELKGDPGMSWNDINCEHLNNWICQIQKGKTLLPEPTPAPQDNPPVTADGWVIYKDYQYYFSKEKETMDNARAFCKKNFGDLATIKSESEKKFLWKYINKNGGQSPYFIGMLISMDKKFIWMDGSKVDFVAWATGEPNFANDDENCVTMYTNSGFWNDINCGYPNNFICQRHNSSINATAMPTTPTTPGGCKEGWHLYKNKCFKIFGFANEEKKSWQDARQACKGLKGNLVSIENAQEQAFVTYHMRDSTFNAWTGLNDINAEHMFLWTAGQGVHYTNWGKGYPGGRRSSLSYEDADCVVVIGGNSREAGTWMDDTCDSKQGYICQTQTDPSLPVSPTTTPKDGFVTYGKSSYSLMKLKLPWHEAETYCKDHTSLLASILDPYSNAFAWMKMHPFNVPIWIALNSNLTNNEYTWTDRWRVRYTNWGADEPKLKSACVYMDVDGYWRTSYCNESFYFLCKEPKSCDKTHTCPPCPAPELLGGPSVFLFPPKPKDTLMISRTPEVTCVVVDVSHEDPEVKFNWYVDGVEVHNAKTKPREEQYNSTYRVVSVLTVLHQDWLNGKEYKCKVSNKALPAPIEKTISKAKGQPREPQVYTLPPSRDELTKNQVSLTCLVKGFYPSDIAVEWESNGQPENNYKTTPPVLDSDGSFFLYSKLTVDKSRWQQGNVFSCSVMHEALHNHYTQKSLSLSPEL
Sequence of binding of FVIII to VWF (P00451 20-1667 limits assumed): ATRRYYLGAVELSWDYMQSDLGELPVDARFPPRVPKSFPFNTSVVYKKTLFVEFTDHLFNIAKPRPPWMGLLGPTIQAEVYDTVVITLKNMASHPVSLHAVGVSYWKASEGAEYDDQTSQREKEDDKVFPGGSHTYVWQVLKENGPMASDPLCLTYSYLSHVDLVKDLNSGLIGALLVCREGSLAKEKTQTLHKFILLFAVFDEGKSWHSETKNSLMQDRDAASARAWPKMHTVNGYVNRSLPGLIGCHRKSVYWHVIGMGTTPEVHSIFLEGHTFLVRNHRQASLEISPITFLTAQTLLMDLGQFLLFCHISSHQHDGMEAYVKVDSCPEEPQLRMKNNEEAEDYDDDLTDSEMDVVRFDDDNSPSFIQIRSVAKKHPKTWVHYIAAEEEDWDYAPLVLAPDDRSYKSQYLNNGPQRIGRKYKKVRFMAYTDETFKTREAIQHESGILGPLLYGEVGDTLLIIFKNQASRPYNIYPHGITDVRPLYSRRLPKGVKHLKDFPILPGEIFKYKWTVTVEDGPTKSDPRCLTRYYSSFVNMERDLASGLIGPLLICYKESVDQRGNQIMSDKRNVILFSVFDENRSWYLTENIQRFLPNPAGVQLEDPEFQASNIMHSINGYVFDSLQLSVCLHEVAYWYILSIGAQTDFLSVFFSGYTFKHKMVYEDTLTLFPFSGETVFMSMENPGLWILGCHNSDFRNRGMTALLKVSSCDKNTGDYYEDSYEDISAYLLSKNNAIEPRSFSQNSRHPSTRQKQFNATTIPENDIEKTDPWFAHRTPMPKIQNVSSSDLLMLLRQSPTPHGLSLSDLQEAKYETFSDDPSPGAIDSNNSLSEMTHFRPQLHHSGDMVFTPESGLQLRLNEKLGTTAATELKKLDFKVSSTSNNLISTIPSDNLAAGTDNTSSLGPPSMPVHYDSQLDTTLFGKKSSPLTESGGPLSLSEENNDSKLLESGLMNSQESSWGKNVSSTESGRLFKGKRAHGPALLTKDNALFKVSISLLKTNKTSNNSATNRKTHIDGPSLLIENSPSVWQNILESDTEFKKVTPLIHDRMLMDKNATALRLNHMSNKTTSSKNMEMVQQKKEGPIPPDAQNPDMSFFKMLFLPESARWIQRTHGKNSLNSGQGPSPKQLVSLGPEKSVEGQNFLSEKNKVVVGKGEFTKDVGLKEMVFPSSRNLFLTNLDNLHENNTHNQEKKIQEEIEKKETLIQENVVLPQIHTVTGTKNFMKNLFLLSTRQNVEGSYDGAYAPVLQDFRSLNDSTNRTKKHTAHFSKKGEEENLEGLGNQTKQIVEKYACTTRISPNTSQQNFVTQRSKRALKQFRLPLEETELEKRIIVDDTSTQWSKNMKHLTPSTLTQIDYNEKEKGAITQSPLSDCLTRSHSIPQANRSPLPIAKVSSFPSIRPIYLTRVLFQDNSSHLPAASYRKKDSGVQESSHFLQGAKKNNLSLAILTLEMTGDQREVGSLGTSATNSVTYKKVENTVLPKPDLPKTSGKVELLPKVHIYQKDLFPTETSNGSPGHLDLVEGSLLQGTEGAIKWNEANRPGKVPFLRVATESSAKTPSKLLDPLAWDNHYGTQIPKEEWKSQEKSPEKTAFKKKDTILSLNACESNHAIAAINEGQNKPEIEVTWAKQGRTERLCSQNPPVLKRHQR
Sequence of binding of FVIII to VWF (P00451 1668-2351 limits assumed): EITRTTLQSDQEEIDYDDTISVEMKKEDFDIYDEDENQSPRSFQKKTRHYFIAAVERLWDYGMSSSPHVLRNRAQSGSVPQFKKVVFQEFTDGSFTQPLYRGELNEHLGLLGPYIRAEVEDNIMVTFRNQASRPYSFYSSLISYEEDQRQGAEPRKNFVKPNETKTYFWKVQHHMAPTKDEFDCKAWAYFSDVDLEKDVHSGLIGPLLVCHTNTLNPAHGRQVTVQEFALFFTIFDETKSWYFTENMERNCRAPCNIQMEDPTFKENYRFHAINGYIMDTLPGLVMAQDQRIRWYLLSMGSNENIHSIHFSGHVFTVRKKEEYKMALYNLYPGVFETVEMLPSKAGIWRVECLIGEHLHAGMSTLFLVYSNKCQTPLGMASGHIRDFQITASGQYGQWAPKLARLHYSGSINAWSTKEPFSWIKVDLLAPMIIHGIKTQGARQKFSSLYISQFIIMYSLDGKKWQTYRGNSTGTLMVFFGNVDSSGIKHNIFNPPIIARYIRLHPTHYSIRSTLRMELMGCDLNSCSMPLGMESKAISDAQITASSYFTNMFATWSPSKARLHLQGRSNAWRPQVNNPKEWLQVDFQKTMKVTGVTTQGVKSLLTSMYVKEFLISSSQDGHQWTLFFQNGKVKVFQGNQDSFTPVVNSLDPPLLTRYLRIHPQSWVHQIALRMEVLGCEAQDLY

effect on interaction of FVIII with VWF (binding of FVIII to VWF): does not interfere
binding to CTLD(4-7)-Fc [2]: specific binding
Substance: mannan
neutralizing effect on the internalization of the antigen (dose dependence) ([1]; FVIII, FVIII-BDD and dextran, FIG. 2e): proportional to the dose
inhibition of internalization of α2M ([1]; excess of RAP or mannan, FIG. 2f): no effect
blocking of internalization of dextran [1, 3]: 80%
effect on internalization of Lucifer yellow (ly) [1, 3]: not affected
inhibition of endocytosis of FVIII-BDD ([1]; mannan 1 mg/ml, p<0.05): 41.3±17.2%
inhibition of endocytosis of whole FVIII ([1]; mannan 1 mg/ml, p<0.05): 35.0±10.0%
saturation concentration for inhibition of internalization ([1]; similar for FVIII, FVIII-BDD and dextran, FIG. 2e): 100 µg/mL
reduction of endocytosis of FVIII by the human DCs ([1]; summary statement in Example 5): up to 40%
